Data: the NIST ThermoML archive (doi:10.1021/je5009679)

Settings: Liquid; for viscosity: Concentric cylinders viscometry

CCCC[n+]1ccn(C)c1.O=S(=O)([N-]S(=O)(=O)C(F)(F)F)C(F)(F)F
101.33 kPa
Settings | viscosity [mPa·s]
293.15 K | 63.41
303.15 K | 41.26
313.15 K | 28.46
323.15 K | 20.58
333.15 K | 15.47
343.15 K | 12
353.15 K | 9.562
363.15 K | 7.788
373.15 K | 6.469

Settings | mass density [kg/m3]
293.15 K, 101.33 kPa, Vibrating tube method | 1440.9
303.15 K, 101.33 kPa, Vibrating tube method | 1431.6
311.8 K, 10000 kPa, Bellows volumetry | 1430.7
311.8 K, 20000 kPa, Bellows volumetry | 1437.5
311.8 K, 30000 kPa, Bellows volumetry | 1444.6
311.8 K, 40000 kPa, Bellows volumetry | 1451.2
311.8 K, 50000 kPa, Bellows volumetry | 1457.5
311.8 K, 60000 kPa, Bellows volumetry | 1463.6
311.8 K, 70000 kPa, Bellows volumetry | 1469.5
311.8 K, 80000 kPa, Bellows volumetry | 1475.2
311.8 K, 90000 kPa, Bellows volumetry | 1480.5
311.8 K, 100000 kPa, Bellows volumetry | 1485.7
311.8 K, 110000 kPa, Bellows volumetry | 1490.9
311.8 K, 120000 kPa, Bellows volumetry | 1496
311.8 K, 130000 kPa, Bellows volumetry | 1500.9
311.8 K, 140000 kPa, Bellows volumetry | 1505.6
311.8 K, 150000 kPa, Bellows volumetry | 1510.2
311.8 K, 160000 kPa, Bellows volumetry | 1514.8
311.8 K, 170000 kPa, Bellows volumetry | 1519.3
311.8 K, 180000 kPa, Bellows volumetry | 1523.5
311.8 K, 190000 kPa, Bellows volumetry | 1527.7
311.8 K, 200000 kPa, Bellows volumetry | 1531.8
313.15 K, 101.33 kPa, Vibrating tube method | 1422.1
323.15 K, 101.33 kPa, Vibrating tube method | 1412.6
331.9 K, 10000 kPa, Bellows volumetry | 1412.5
331.9 K, 20000 kPa, Bellows volumetry | 1420.1
331.9 K, 30000 kPa, Bellows volumetry | 1427.4
331.9 K, 40000 kPa, Bellows volumetry | 1434.5
331.9 K, 50000 kPa, Bellows volumetry | 1441.1
331.9 K, 60000 kPa, Bellows volumetry | 1447.6
331.9 K, 70000 kPa, Bellows volumetry | 1453.6
331.9 K, 80000 kPa, Bellows volumetry | 1459.5
331.9 K, 90000 kPa, Bellows volumetry | 1464.9
331.9 K, 100000 kPa, Bellows volumetry | 1470.5
331.9 K, 110000 kPa, Bellows volumetry | 1476
331.9 K, 120000 kPa, Bellows volumetry | 1481.1
331.9 K, 130000 kPa, Bellows volumetry | 1486.2
331.9 K, 140000 kPa, Bellows volumetry | 1491.2
331.9 K, 150000 kPa, Bellows volumetry | 1495.9
331.9 K, 160000 kPa, Bellows volumetry | 1500.5
331.9 K, 170000 kPa, Bellows volumetry | 1505.2
331.9 K, 180000 kPa, Bellows volumetry | 1509.6
331.9 K, 190000 kPa, Bellows volumetry | 1513.9
331.9 K, 200000 kPa, Bellows volumetry | 1518.3
333.15 K, 101.33 kPa, Vibrating tube method | 1403.4
343.15 K, 101.33 kPa, Vibrating tube method | 1394
352 K, 10000 kPa, Bellows volumetry | 1394
352 K, 20000 kPa, Bellows volumetry | 1402.4
352 K, 30000 kPa, Bellows volumetry | 1410
352 K, 40000 kPa, Bellows volumetry | 1417.4
352 K, 50000 kPa, Bellows volumetry | 1424.3
352 K, 60000 kPa, Bellows volumetry | 1431.2
352 K, 70000 kPa, Bellows volumetry | 1437.5
352 K, 80000 kPa, Bellows volumetry | 1443.8
352 K, 90000 kPa, Bellows volumetry | 1449.5
352 K, 100000 kPa, Bellows volumetry | 1455.3
352 K, 110000 kPa, Bellows volumetry | 1460.8
352 K, 120000 kPa, Bellows volumetry | 1466.3
352 K, 130000 kPa, Bellows volumetry | 1471.5
352 K, 140000 kPa, Bellows volumetry | 1476.5
352 K, 150000 kPa, Bellows volumetry | 1481.4
352 K, 160000 kPa, Bellows volumetry | 1486.3
352 K, 170000 kPa, Bellows volumetry | 1491
352 K, 180000 kPa, Bellows volumetry | 1495.8
352 K, 190000 kPa, Bellows volumetry | 1500.2
352 K, 200000 kPa, Bellows volumetry | 1504.7
353.15 K, 101.33 kPa, Vibrating tube method | 1384.8
363.15 K, 101.33 kPa, Vibrating tube method | 1375.6
372.2 K, 10000 kPa, Bellows volumetry | 1376.1
372.2 K, 20000 kPa, Bellows volumetry | 1384.9
372.2 K, 30000 kPa, Bellows volumetry | 1393.3
372.2 K, 40000 kPa, Bellows volumetry | 1401.1
372.2 K, 50000 kPa, Bellows volumetry | 1408.4
372.2 K, 60000 kPa, Bellows volumetry | 1415.5
372.2 K, 70000 kPa, Bellows volumetry | 1422.1
372.2 K, 80000 kPa, Bellows volumetry | 1428.4
372.2 K, 90000 kPa, Bellows volumetry | 1434.4
372.2 K, 100000 kPa, Bellows volumetry | 1440.3
372.2 K, 110000 kPa, Bellows volumetry | 1446.2
372.2 K, 120000 kPa, Bellows volumetry | 1452
372.2 K, 130000 kPa, Bellows volumetry | 1457.4
372.2 K, 140000 kPa, Bellows volumetry | 1462.6
372.2 K, 150000 kPa, Bellows volumetry | 1467.8
372.2 K, 160000 kPa, Bellows volumetry | 1472.5
372.2 K, 170000 kPa, Bellows volumetry | 1477.5
372.2 K, 180000 kPa, Bellows volumetry | 1482.1
372.2 K, 190000 kPa, Bellows volumetry | 1487
372.2 K, 200000 kPa, Bellows volumetry | 1491.4
373.15 K, 101.33 kPa, Vibrating tube method | 1366.7
392.4 K, 10000 kPa, Bellows volumetry | 1358.5
392.4 K, 20000 kPa, Bellows volumetry | 1367.8
392.4 K, 30000 kPa, Bellows volumetry | 1376.7
392.4 K, 40000 kPa, Bellows volumetry | 1385
392.4 K, 50000 kPa, Bellows volumetry | 1392.8
392.4 K, 60000 kPa, Bellows volumetry | 1400.2
392.4 K, 70000 kPa, Bellows volumetry | 1407.2
392.4 K, 80000 kPa, Bellows volumetry | 1414
392.4 K, 90000 kPa, Bellows volumetry | 1420.7
392.4 K, 100000 kPa, Bellows volumetry | 1426.6
392.4 K, 110000 kPa, Bellows volumetry | 1432.6
392.4 K, 120000 kPa, Bellows volumetry | 1438.2
392.4 K, 130000 kPa, Bellows volumetry | 1443.8
392.4 K, 140000 kPa, Bellows volumetry | 1449.2
392.4 K, 150000 kPa, Bellows volumetry | 1454.4
392.4 K, 160000 kPa, Bellows volumetry | 1459.3
392.4 K, 170000 kPa, Bellows volumetry | 1464.5
392.4 K, 180000 kPa, Bellows volumetry | 1469.2
392.4 K, 190000 kPa, Bellows volumetry | 1474.1
392.4 K, 200000 kPa, Bellows volumetry | 1478.8
412.1 K, 10000 kPa, Bellows volumetry | 1341.1
412.1 K, 20000 kPa, Bellows volumetry | 1351
412.1 K, 30000 kPa, Bellows volumetry | 1360.4
412.1 K, 40000 kPa, Bellows volumetry | 1369.2
412.1 K, 50000 kPa, Bellows volumetry | 1377.5
412.1 K, 60000 kPa, Bellows volumetry | 1385.1
412.1 K, 70000 kPa, Bellows volumetry | 1392.6
412.1 K, 80000 kPa, Bellows volumetry | 1399.6
412.1 K, 90000 kPa, Bellows volumetry | 1406.1
412.1 K, 100000 kPa, Bellows volumetry | 1412.5
412.1 K, 110000 kPa, Bellows volumetry | 1418.8
412.1 K, 120000 kPa, Bellows volumetry | 1424.8
412.1 K, 130000 kPa, Bellows volumetry | 1430.5
412.1 K, 140000 kPa, Bellows volumetry | 1436.2
412.1 K, 150000 kPa, Bellows volumetry | 1441.4
412.1 K, 160000 kPa, Bellows volumetry | 1446.8
412.1 K, 170000 kPa, Bellows volumetry | 1451.9
412.1 K, 180000 kPa, Bellows volumetry | 1456.9
412.1 K, 190000 kPa, Bellows volumetry | 1461.6
412.1 K, 200000 kPa, Bellows volumetry | 1466.6
